The record followed here is ChEMBL document CHEMBL1143640, “Modulators of the human CCR5 receptor. Part 2: SAR of substituted 1-(3,3-diphenylpropyl)-piperidinyl phenylacetamides” (Bioorg Med Chem Lett, 2005).

Molecules are shown by their SMILES.

A short description of series [1]: In vitro intrinsic clearance against rat hepatocytes.
The nature of series [2]: Clearance in rat after 1 mg/kg i.v. dosage; n=3. To be noted: in vivo, iv.
In series [3] the target is T1, C-C chemokine receptor type 5 (Homo sapiens, UniProt P51681). Kind of series: Displacement of [125I]-MIP-1 alpha from human C-C chemokine receptor type 5 expressed in CHO cells. The series is classed as cell-based. In general terms: In a radioligand displacement assay an active substance lowers the binding of a labelled ligand.
T1 sequence (P51681 whole entry): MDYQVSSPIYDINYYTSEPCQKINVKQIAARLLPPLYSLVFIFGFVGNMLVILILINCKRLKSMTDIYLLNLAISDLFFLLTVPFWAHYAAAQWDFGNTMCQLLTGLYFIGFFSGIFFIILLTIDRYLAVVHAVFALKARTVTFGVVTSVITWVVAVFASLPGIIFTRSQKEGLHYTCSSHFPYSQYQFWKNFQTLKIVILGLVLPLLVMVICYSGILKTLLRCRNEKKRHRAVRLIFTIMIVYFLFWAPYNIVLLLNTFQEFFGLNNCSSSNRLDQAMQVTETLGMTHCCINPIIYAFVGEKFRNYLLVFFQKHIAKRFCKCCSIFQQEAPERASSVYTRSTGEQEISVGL
Series [4] is described as follows: Area under the plasma concentration curve was determined at 0-6 hours in rat after ~2 mg/kg oral dosage; n=2.
Series [5] is described as follows: Bioavailability in rat after 4-10 mg/kg oral dosage; n=3. To be noted: in vivo. The format is ADME, organism-based.
For series [6], the target named is T1, C-C chemokine receptor type 5. Kind of series: Inhibition of MIP-1beta stimulated calcium transients in CCR5-expressing CHO cells. The series is classed as functional, cell-based.
Series [7] in a line: Ability to inhibit the chemotaxis of human AlloT cells in response to MIP-1beta. The format is functional, cell-based.

`C=CCN(C(=O)Cc1ccc(S(C)(=O)=O)cc1)C1CCN(CCC(c2ccccc2)c2ccccc2)CC1` showed a Clint in series [1] of 54 uL/min/10e6 cells. In series [2], the clearance (as a rule, a measure of how efficiently the substance is removed, as volume per time) came to 54 mL/min/kg. The 50% inhibitory concentration (IC50) (commonly the concentration that gives 50% inhibition) in series [3] was 13 nM. In addition, the AUC (commonly the area under the concentration-time curve, a measure of exposure) at 6 h in series [4] came to 0.132 µM·h. The bioavailability (usually the share of a dose that reaches the circulation, judged against a reference dose that is usually intravenous) in series [5] worked out at 11%.

Regarding `CS(=O)(=O)c1ccc(CC(=O)N(C2CC2)C2CCN(CCC(c3ccccc3)c3ccccc3)CC2)cc1`, the IC50 in series [3] is 32 nM.

Consider `CCN(C(=O)Cc1ccc(S(C)(=O)=O)cc1)C1CCN(CCC(c2ccccc2)c2ccc(C(F)(F)F)cc2)CC1` (stereo not given), for which the Clint in series [1] is 37 uL/min/10e6 cells. The compound further returned an IC50 in series [3] of 2.3 nM.

In the case of `CCN(C(=O)Cc1ccc(S(C)(=O)=O)cc1)C1CCN(CCC(c2ccccc2)c2ccc(C(=O)OC)cc2)CC1` (stereo not given), the Clint in series [1] is recorded as > 150 uL/min/10e6 cells. In series [3], the IC50 came to 7.1 nM.

In turn, `CCN(C(=O)Cc1ccc(S(C)(=O)=O)cc1)C1CCN(CCC(c2ccccc2)c2ccc(C)cc2)CC1` (stereo not given) returned an IC50 in series [3] of 28 nM.

The compound `CCN(C(=O)Cc1ccc(S(C)(=O)=O)cc1)C1CCN(CCC(c2ccccc2)c2cccc(Cl)c2)CC1` (stereo not given) showed an IC50 in series [3] of 58 nM.

With `CCN(C(=O)Cc1ccc(S(C)(=O)=O)cc1)C1CCN(CCC(c2ccccc2)c2ccc(NS(C)(=O)=O)cc2)CC1` (stereo not given), the figures for the IC50 in series [6], in series [3] and in series [7] were 24 nM, 18 nM and 31 nM, respectively.

`CCN(C(=O)Cc1ccc(S(C)(=O)=O)cc1)C1CCN(CCC(c2ccccc2)c2ccc(Cl)cc2)CC1` (stereo not given) registered a Clint in series [1] of 34 uL/min/10e6 cells. The same compound showed a clearance in series [2] of 46 mL/min/kg. The compound further had an IC50 in series [3] of 8.5 nM. Besides, the bioavailability in series [5] was found to be 3%.

With `CCN(C(=O)Cc1ccc(S(C)(=O)=O)cc1)C1CCN(CCC(c2ccccc2)c2ccc(NC(C)=O)cc2)CC1` (stereo not given), in series [3], the IC50 was determined as 26 nM.

In the case of `CCN(C(=O)Cc1ccc(S(C)(=O)=O)cc1)C1CCN(CCC(c2ccccc2)c2ccc(C#N)cc2)CC1` (stereo not given), in series [3], the IC50 is < 1 nM.

As for `CCN(C(=O)Cc1ccc(S(C)(=O)=O)cc1)C1CCN(CCC(c2ccccc2)c2ccc(C(N)=O)cc2)CC1` (stereo not given), in series [3], the concentration for half-maximal inhibition (IC50) was determined as 260 nM.

In turn, `CCN(C(=O)Cc1ccc(S(C)(=O)=O)cc1)C1CCN(CCC(c2ccccc2)c2ccc(NS(=O)(=O)c3ccccc3)cc2)CC1` (stereo not given) yielded a half-maximal inhibitory concentration (IC50) in series [3] of 740 nM.

In series [3], `CCN(C(=O)Cc1ccc(S(C)(=O)=O)cc1)C1CCN(CCC(c2ccccc2)c2ccc(NC(=O)Cc3ccccc3)cc2)CC1` (stereo not given) displayed an IC50 of 5.9 nM. The compound also came in with an AUC at 6 h in series [4] of 0.012 µM·h.

Compound `CCN(C(=O)Cc1ccc(S(C)(=O)=O)cc1)C1CCN(CCC(c2ccccc2)c2ccc(NC(=O)c3ccccc3)cc2)CC1` (stereo not given) gave an IC50 in series [3] of 130 nM.

In the case of `CCN(C(=O)Cc1ccc(S(C)(=O)=O)cc1)C1CCN(CCC(c2ccc(F)cc2)c2ccc(F)cc2)CC1`, the Clint in series [1] amounted to 4 uL/min/10e6 cells. Besides, the clearance in series [2] came to 10 mL/min/kg. For the same compound, the IC50 in series [3] is 780 nM. The same compound yielded an AUC at 6 h in series [4] of 1.87 µM·h. In series [5], this compound showed a bioavailability of 56%.

Compound `CCN(C(=O)Cc1ccc(S(C)(=O)=O)cc1)C1CCN(CCC(c2ccccc2)c2ccc(F)cc2)CC1` (stereo not given) came in with an IC50 in series [3] of 310 nM.

Regarding `CCN(C(=O)Cc1ccc(S(C)(=O)=O)cc1)C1CCN(CCC(c2ccc(NC(=O)OC(C)(C)C)cc2)c2cccc(F)c2)CC1` (stereo not given), the IC50 in series [3] was 89 nM.

As to `CCN(C(=O)Cc1ccc(S(C)(=O)=O)cc1)C1CCN(CCC(c2ccccc2)c2ccccc2)CC1`, the IC50 in series [3] was 18 nM.

On to `CCN(C(=O)Cc1ccc(S(C)(=O)=O)cc1)C1CCN(CCC(c2ccccc2)c2ccc(N)cc2)CC1` (stereo not given), for which, in series [3], the IC50 worked out at 200 nM.

In series [3], `CCN(C(=O)Cc1ccc(S(C)(=O)=O)cc1)C1CCN(CCC(c2ccccc2)c2ccc(NC(=O)C(C)(C)C)cc2)CC1` (stereo not given) gave an IC50 of 22 nM.

In series [1], `CCN(C(=O)Cc1ccc(S(C)(=O)=O)cc1)C1CCN(CCC(c2ccc(NC(C)=O)cc2)c2cccc(F)c2)CC1` (stereo not given) came in with a Clint of 17 uL/min/10e6 cells. In series [3], this compound showed an IC50 of 7.9 nM. The AUC at 6 h in series [4] is 0.008 µM·h.

On to `CCN(C(=O)Cc1ccc(S(C)(=O)=O)cc1)C1CCN(CCC(c2ccc(Cl)cc2)c2cccc(F)c2)CC1` (stereo not given), for which, in series [3], the IC50 came out at 19 nM.

In series [1], `CCN(C(=O)Cc1ccc(S(C)(=O)=O)cc1)C1CCN(CCC(c2ccccc2)c2ccc(OC)cc2)CC1` (stereo not given) displayed a Clint of 41 uL/min/10e6 cells. For the same compound, the 50% inhibitory concentration (IC50) in series [3] is 6.3 nM.

`CCN(C(=O)Cc1ccc(S(C)(=O)=O)cc1)C1CCN(CCC(c2ccccc2)c2ccc(Cl)c(Cl)c2)CC1` (stereo not given) returned a 50% inhibitory concentration (IC50) in series [3] of 78 nM.

The compound `CCN(C(=O)Cc1ccc(S(C)(=O)=O)cc1)C1CCN(CCC(c2ccccc2)c2ccc(SC)cc2)CC1` (stereo not given) had an IC50 in series [3] of 12 nM.

In series [3], `CCN(C(=O)Cc1ccc(S(C)(=O)=O)cc1)C1CCN(CCC(c2ccccc2)c2ccc(-c3ccccc3)cc2)CC1` (stereo not given) gave an IC50 of 85 nM.

Take `CCN(C(=O)Cc1ccc(S(C)(=O)=O)cc1)C1CCN(CCC(c2ccccc2)c2ccc(NS(=O)(=O)Cc3ccccc3)cc2)CC1` (stereo not given): in series [3], the IC50 amounted to 11 nM.

In series [3], `CCN(C(=O)Cc1ccc(S(C)(=O)=O)cc1)C1CCN(CCC(c2ccc(Cl)cc2)c2ccc(Cl)cc2)CC1` had an IC50 of 760 nM.

In turn, `CCN(C(=O)Cc1ccc(S(C)(=O)=O)cc1)C1CCN(CCC(c2ccc(NS(C)(=O)=O)cc2)c2cccc(F)c2)CC1` (stereo not given) yielded a Clint in series [1] of 15 uL/min/10e6 cells. Moreover, the AUC at 6 h in series [4] turned out to be 0.002 µM·h.

As to `CCN(C(=O)Cc1ccc(S(C)(=O)=O)cc1)C1CCN(CCC(c2ccccc2)c2ccc(NC(=O)OC(C)(C)C)cc2)CC1` (stereo not given), in series [3], the 50% inhibitory concentration (IC50) was 200 nM.
